Experimental data reported in patent publication US20070299072A1, “KV1.5 POTASSIUM CHANNEL INHIBITORS” (Wyeth, priority 2006, published 2007).

How the values were obtained:
Assay type in all cases: cell-based
[1] = molecular target: T1, Kv1.5 (Homo sapiens, UniProt P22460); experiment: Kv1.5 Patch Clamp EP (whole cell patch clamp; single point at 1 μM and IC50); conditions: for IC50: concentration response; for inhibition at 1 µM: single point at 1.0 μM, Kv1.5 stably over expressed in HEK or LTK- cells
T1 construct: expressed in transfected cells; host or cells: HEK or LTK- cells
Procedure: The external solution is standard Tyrodes solution. […] Inhibition was measured at the end of the 1 second pulses and expressed relative to controls. Initial Kv1.5 inhibition is estimated by single point determinations done at 1 μM.

[2] = molecular target: T2, HERG (Homo sapiens, UniProt Q12809); experiment: HERG Patch Clamp EP (whole cell patch clamp, tail currents; single point at 10 μM and IC50); conditions: for IC50: concentration response; for inhibition at 10 µM: human, HEK cells stably overexpressing HERG, single point at 10 μM, HERG in HEK cells, read-out: HERG % Inhib. @ 10 μM
T2 construct: expressed in transfected cells; host or cells: HEK cells
Excerpt: The external solution is standard Tyrodes solution.

[3] = system: L-type calcium channels; experiment: FLIPR L-type Calcium Channel Assay (calcium influx in HL-1 cells after KCl); conditions: read-out: L-type Ca2+ IC50
Procedure: HL-1 cells expressing endogenous L-type calcium channels are removed from culture flasks using trypsin, plated on fibronectin/gelatin-coated, clear-bottomed, black-walled 96-well microplates in Claycomb media (JRH Biosciences #51800) containing 10% fetal bovine serum, 4 mM L-glutamine, and 10 μM norepinephrine, and grown to confluency overnight. The next day, growth medium is aspirated from confluent cell monolayers and replaced with 100 μL per well Tyrode's solution (in mM: 130 NaCl, 4 KCl, 1.8 CaCl2, 1.0 MgCl2, 20 HEPES, 10 glucose, pH 7.35) and 50 μL per well FLIPR Calcium Assay kit, component A (#R-8033, Molecular Devices Corporation) and incubated for 60 min. in a 5% CO2 37° C. incubator. 50 μL per well test compounds are added to the plates and further incubated for 15 min. in a 5% CO2 37° C. incubator. All final solutions contain the anion exchange inhibitor, probenecid (2.5 mM). The 96-well plates are then placed in the center position of the FLIPR 1 (Fluorometric Imaging Plate Reader, Molecular Devices Corporation). Cell monolayers in each well are simultaneously illuminated at 488 nm with an Argon ion laser, and fluorescence emission is monitored using a 510-570 nm bandpass filter and a cooled CCD camera. To depolarize the plasma membrane and activate L-type calcium channels, 50 μL per well of 20 mM KCl (final concentration) are dispensed simultaneously to all 96 wells using the FLIPR's automatic 96-well pipettor. Fluorescence measurements are captured for 5 min. following KCl addition. Calcium influx, expressed as % control, is calculated for each concentration of test compound and concentration-response curves and IC50 values are generated using GraphPad Prism 4.0.

T1 sequence (P22460 whole entry): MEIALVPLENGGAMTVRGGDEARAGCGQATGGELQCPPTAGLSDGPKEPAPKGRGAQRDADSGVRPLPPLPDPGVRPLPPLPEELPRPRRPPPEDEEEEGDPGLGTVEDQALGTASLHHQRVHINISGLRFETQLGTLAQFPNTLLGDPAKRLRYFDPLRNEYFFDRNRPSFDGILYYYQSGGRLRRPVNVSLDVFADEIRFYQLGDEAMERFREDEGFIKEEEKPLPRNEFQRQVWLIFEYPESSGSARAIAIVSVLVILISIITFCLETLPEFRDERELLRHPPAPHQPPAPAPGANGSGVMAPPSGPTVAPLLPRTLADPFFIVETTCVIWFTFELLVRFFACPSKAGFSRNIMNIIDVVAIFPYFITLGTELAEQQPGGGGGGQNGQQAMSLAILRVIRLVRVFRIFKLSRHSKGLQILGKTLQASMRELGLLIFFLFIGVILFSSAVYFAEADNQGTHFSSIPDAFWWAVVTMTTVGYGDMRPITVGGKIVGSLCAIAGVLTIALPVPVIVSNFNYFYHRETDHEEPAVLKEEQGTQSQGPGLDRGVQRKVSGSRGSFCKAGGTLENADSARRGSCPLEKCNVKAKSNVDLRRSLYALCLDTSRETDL
T2 sequence (Q12809 whole entry): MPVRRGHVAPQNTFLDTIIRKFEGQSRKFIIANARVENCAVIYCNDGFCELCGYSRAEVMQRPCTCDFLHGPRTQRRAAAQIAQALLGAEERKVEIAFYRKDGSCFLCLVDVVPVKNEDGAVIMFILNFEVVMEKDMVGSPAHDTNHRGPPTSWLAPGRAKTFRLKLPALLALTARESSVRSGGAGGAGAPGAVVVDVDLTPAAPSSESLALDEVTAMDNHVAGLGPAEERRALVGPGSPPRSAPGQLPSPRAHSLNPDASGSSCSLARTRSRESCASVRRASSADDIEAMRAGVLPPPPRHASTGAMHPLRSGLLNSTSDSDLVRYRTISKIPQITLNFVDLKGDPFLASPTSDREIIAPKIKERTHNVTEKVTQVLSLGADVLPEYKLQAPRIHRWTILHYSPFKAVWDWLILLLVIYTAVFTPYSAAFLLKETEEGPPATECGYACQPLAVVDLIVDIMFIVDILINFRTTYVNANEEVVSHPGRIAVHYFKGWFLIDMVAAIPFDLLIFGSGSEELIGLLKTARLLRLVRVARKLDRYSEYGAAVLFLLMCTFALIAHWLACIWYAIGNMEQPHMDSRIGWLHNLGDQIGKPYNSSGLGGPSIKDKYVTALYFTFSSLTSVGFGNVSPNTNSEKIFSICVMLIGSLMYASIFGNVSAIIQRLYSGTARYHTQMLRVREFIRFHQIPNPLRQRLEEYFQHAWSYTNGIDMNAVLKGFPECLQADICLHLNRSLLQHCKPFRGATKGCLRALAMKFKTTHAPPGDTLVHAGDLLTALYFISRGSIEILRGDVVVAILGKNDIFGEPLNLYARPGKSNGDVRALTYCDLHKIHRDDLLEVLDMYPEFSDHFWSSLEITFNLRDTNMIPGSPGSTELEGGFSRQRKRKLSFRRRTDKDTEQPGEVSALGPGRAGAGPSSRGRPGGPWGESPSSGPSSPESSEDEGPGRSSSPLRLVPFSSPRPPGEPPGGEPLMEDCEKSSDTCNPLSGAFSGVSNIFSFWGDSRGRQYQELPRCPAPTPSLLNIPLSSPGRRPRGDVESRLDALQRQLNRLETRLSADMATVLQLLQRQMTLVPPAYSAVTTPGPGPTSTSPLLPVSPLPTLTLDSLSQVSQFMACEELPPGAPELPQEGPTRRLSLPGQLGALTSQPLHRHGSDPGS

COc1ccc(CCN2C(=O)C3(CCN(C(=O)C4CC4)CC3)N(C)C2c2ccc(C3CC3)cc2)cc1 (stereo not shown) [Compound 4, 8-Cyclopropylcarbonyl-2-(4-cyclopropylphenyl)-3-[2-(4-methoxyphenyl)ethyl]-1-methyl-1,3,8-triaza-spiro[4.5]decan-4-one]
IC50 [1]: 151 nM | inhibition at 1 µM [1]: 94% | IC50 [2]: 9.5 µM | inhibition at 10 µM [2]: 64% | IC50 [3]: 8 µM

COc1ccc(CCN2C(=O)C3(CCN(C(C)=O)CC3)N(C)C2c2ccc(C3CC3)cc2)cc1 (stereo not shown) [Compound 5, 8-Acetyl-2-(4-cyclopropylphenyl)-3-[2-(4-methoxyphenyl)ethyl]-1-methyl-1,3,8-triaza-spiro[4.5]decan-4-one]
IC50 [1]: 514 nM | inhibition at 1 µM [1]: 84% | IC50 [2]: 31 µM | inhibition at 10 µM [2]: 8% | IC50 [3]: 36 µM

COc1ccc(CCN2C(=O)C3(CCN(C(=O)C4CC4)CC3)N(C)C2c2ccc(OC(F)F)cc2)cc1 (stereo not shown) [Compound 6, 8-Cyclopropylcarbonyl-2-(4-difluoromethoxyphenyl)-3-[2-(4-methoxyphenyl)-ethyl]-1-methyl-1,3,8-triazaspiro[4.5]decan-4-one]
inhibition at 1 µM [1]: 68% | inhibition at 10 µM [2]: 85% | IC50 [3]: 13 µM

COc1ccc(CCN2C(=O)C3(CCN(C(N)=O)CC3)N(C)C2c2ccc(C3CC3)cc2)cc1 (stereo not shown) [Compound 7, 2-(4-Cyclopropylphenyl)-3-[2-(4-methoxyphenyl)ethyl]-1-methyl-4-oxo-1,3,8-triaza-spiro[4.5]decane-8-carboxylic acid amide]
IC50 [1]: 579 nM | inhibition at 1 µM [1]: 87% | IC50 [2]: 23.5 µM | inhibition at 10 µM [2]: 12% | IC50 [3]: 9 µM

CNC(=O)N1CCC2(CC1)C(=O)N(CCc1ccc(OC)cc1)C(c1ccc(C3CC3)cc1)N2C (stereo not shown) [Compound 8, 2-(4-Cyclopropylphenyl)-3-[2-(4-methoxyphenyl)ethyl]-1-methyl-4-oxo-1,3,8-triaza-spiro[4.5]decane-8-carboxylic acid methyl amide]
IC50 [1]: 350 nM | inhibition at 1 µM [1]: 91% | inhibition at 10 µM [2]: 25% | IC50 [3]: 11 µM

COc1ccc(CCN2C(=O)C3(CCN(C(=O)N4CCCCC4)CC3)N(C)C2c2ccc(C3CC3)cc2)cc1 (stereo not shown) [Compound 9, 2-(4-Cyclopropylphenyl)-3-[2-(4-methoxyphenyl)ethyl]-1-methyl-8-(piperidine-1-carbonyl)-1,3,8-triaza-spiro[4.5]decan-4-one]
inhibition at 1 µM [1]: 96% | inhibition at 10 µM [2]: 60% | IC50 [3]: 6.2 µM

CCN(CC)c1ccc(C2N(CCc3ccc(OC)cc3)C(=O)C3(CCN(C(N)=O)CC3)N2C)cc1 (stereo not shown) [Compound 10, 2-[4-(Diethylamino)phenyl]-3-[2-(4-methoxyphenyl)ethyl]-1-methyl-4-oxo-1,3,8-triaza-spiro[4.5]decane-8-carboxylic acid amide]
inhibition at 1 µM [1]: 87% | inhibition at 10 µM [2]: 5% | IC50 [3]: 12 µM

COc1ccc(CCN2C(=O)C3(CCN(C(N)=O)CC3)N(C)C2c2ccc(C(F)(F)F)cc2)cc1 (stereo not shown) [Compound 11, 2-(4-Trifluoromethylphenyl)-3-[2-(4-methoxyphenyl)ethyl]-1-methyl-4-oxo-1,3,8-triaza-spiro[4.5]decane-8-carboxylic acid amide]
inhibition at 1 µM [1]: 29% | inhibition at 10 µM [2]: 33%

COc1ccc(CCN2C(=O)C3(CCN(C(N)=O)CC3)N(C)C2c2ccc(C(C)(C)C)cc2)cc1 (stereo not shown) [Compound 12, 2-(4-tert-Butylphenyl)-3-[2-(4-methoxyphenyl)ethyl]-1-methyl-4-oxo-1,3,8-triaza-spiro[4.5]decane-8-carboxylic acid amide]
IC50 [1]: 611 nM | inhibition at 1 µM [1]: 70% | inhibition at 10 µM [2]: 40% | IC50 [3]: 8 µM

COc1ccc(CCN2C(=O)C3(CCN(C(N)=O)CC3)N(C)C2c2ccc(OC(F)F)cc2)cc1 (stereo not shown) [Compound 13, 2-(4-Difluoromethoxyphenyl)-3-[2-(4-methoxyphenyl)ethyl]-1-methyl-4-oxo-1,3,8-triaza-spiro[4.5]decane-8-carboxylic acid amide]
inhibition at 1 µM [1]: 46% | inhibition at 10 µM [2]: 57%

CN1C(c2ccc(C3CC3)cc2)N(CCc2ccc(OC(F)(F)F)cc2)C(=O)C12CCN(C(N)=O)CC2 (stereo not shown) [Compound 14, 2-(4-Cyclopropylphenyl)-3-[2-(4-trifluoromethoxyphenyl)ethyl]-1-methyl-4-oxo-1,3,8-triaza-spiro[4.5]decane-8-carboxylic acid amide]
inhibition at 1 µM [1]: 59% | inhibition at 10 µM [2]: 75% | IC50 [3]: 15 µM

CCNC(=O)N1CCC2(CC1)C(=O)N(CCc1ccc(OC)cc1)C(c1ccc(C(C)(C)C)cc1)N2C (stereo not shown) [Compound 15, 2-(4-tert-Butylphenyl)-3-[2-(4-methoxyphenyl)ethyl]-1-methyl-4-oxo-1,3,8-triaza-spiro[4.5]decane-8-carboxylic acid ethyl amide]
inhibition at 1 µM [1]: 84% | IC50 [3]: 2.5 µM

CCN(CC)C(=O)N1CCC2(CC1)C(=O)N(CCc1ccc(OC)cc1)C(c1ccc(C3CC3)cc1)N2C (stereo not shown) [Compound 19, 2-(4-Cyclopropylphenyl)-3-[2-(4-methoxyphenyl)ethyl]-1-methyl-4-oxo-1,3,8-triaza-spiro[4.5]decane-8-carboxylic acid diethylamide]
inhibition at 1 µM [1]: 97% | IC50 [3]: 5.3 µM

COc1ccc(CCN2C(=O)C3(CCN(C(=O)N(C)OC)CC3)N(C)C2c2ccc(C3CC3)cc2)cc1 (stereo not shown) [Compound 28, 2-(4-Cyclopropylphenyl)-N-methoxy-3-[2-(4-methoxyphenyl)ethyl]-N,1-dimethyl-4-oxo-1,3,8-triazaspiro[4.5]decane-8-carboxamide]
inhibition at 1 µM [1]: 88% | IC50 [3]: 8.4 µM

COc1ccc(CCN2C(=O)C3(CCN(C(=O)OC(C)C)CC3)N(C)C2c2ccc(C3CC3)cc2)cc1 (stereo not shown) [Compound 36, Isopropyl 2-(4-cyclopropylphenyl)-3-[2-(4-methoxyphenyl)ethyl]-1-methyl-4-oxo-1,3,8-triazaspiro[4.5]decane-8-carboxylate]
inhibition at 1 µM [1]: 92% | IC50 [3]: 7.4 µM

CCN(CC)c1ccc(C2N(CCc3ccc(OC)cc3)C(=O)C3(CCN(C(=O)OC(C)(C)C)CC3)N2C)cc1 (stereo not shown) [Compound 39, tert-Butyl 2-(4-diethylaminophenyl)-3-[2-(4-methoxyphenyl)ethyl]-1-methyl-4-oxo-1,3,8-triazaspiro[4.5]decane-8-carboxylate]
inhibition at 1 µM [1]: 86% | IC50 [3]: 4.4 µM

CN1C(c2ccc(C3CC3)cc2)N(CCCc2ccccc2)C(=O)C12CCN(C(=O)OC(C)(C)C)CC2 (stereo not shown) [Compound 47, 2-(4-Cyclopropylphenyl)-1-methyl-4-oxo-3-(3-phenylpropyl)-1,3,8-triazaspiro-[4.5]decane-8-carboxylic acid tert-butyl ester]
inhibition at 1 µM [1]: 75% | IC50 [3]: 20 µM

CNC(=O)N1CCC2(CC1)C(=O)N(CCCc1ccccc1)C(c1ccc(C3CC3)cc1)N2C (stereo not shown) [Compound 51, 2-(4-Cyclopropylphenyl)-1-methyl-4-oxo-3-(3-phenylpropyl)-1,3,8-triazaspiro-[4.5]decane-8-carboxylic acid methylamide]
inhibition at 1 µM [1]: 73% | IC50 [3]: 10 µM

COc1ccc(CCN2C(=O)C3(CCN(C(=O)OC(C)(C)C)CC3)N(C)C2c2ccc(C3CC3)cc2)cc1 (stereo not shown) [Compound 65, 2-(4-cyclopropylphenyl)-3-[2-(4-methoxyphenyl)ethyl]-1-methyl-4-oxo-1,3,8-triaza-spiro[4.5]decane-8-carboxylic acid tert-butyl ester]
inhibition at 1 µM [1]: 80% | IC50 [3]: 3.6 µM
